# According to patent US20240139188A1, “Arylamide Compounds For Treatment And Prevention Of Fungal Infections” (priority 2022, published 2024):
# Like-named read-outs stand apart in the source and are kept apart here.
# Columns and labels:
# C. neoformans [1] = test: BRI+CAS against yeasts, colony forming units; details: CAS 16 μg/ml alone, 48 hours
# Protocol: Combination of Brilacidin and caspofungin against yeasts: For measuring the effect of the combination BRI+CAS against yeast fungal pathogens, two methods were used: (i) metabolic activity by XTT-assay and (ii) colony forming units (CFUs). For the first method, C. neoformans, C. albicans, and C. auris 10^4 cells were inoculated in RPMI-1640 supplemented with CAS 0 to 32 μg/ml (for C. neoformans) and 0 to 1 μg/ml (for Candida spp.) or the same concentrations of CAS combined with BRI 0.625 μM (for C. neoformans), BRI 20 μM (for C. albicans), and BRI 10 μM (for C. auris). […] XTT-assays were also used for C. albicans caspofungin resistant strains but with CAS 0.5 μg/ml combined with BRI 5, 10 or 20 μM. The same experimental design was used for the CFUs determination, except that after 48 hours the cells present in the wells were plated on YPD (yeast extract 10g, peptone 20g, dextrose 20g, agar 20 g, water 1000 mL) and the plates were incubated at 30° C. for 24-48 hours for determining the survival percentage.
# A. fumigatus biofilms = test: Biofilm assay (XTT); details: Aspergillus fumigatus, read-out: inhibition of biofilm formation
# Protocol: Biofilm assay: To test the susceptibility of pre-formed A. fumigatus biofilms to
# VOR, CAS and to the combination of CAS+BRI and VOR+BRI, a suspension containing 10^6 conidia per mL of the wild-type strain (Δku80 pyrG^+) was prepared in liquid MM and 100 μL of it was inoculated in each well of a 96-well plate. After 24 hours of incubation at 37° C., 50 μL of fresh MM containing CAS, VOR or the combination of VOR and CAS with BRI was added to the biofilm to reach the final concentration as indicated and incubated for a further 12 hours at 37° C. Wells containing untreated conidia were used as a positive control. After, the metabolic activity of the cells was evaluated by adding 50 μL of an aqueous XTT solution (1 mg/mL of XTT and 125 μM of menadione) to each well. The plate was incubated for additional 1 hour at 37° C., centrifuged (2000 rpm, 5 minutes) and 100 μL of the supernatant was transferred to a flat-bottomed 96-well plate. The absorbance was measured at 450 nm on a plate reader (Synergy HTX Multi-Mode Reader- BioTek Instruments). The XTT assay's were performed in six replicates.
# [2] = test system: A. fumigatus null mutants; test: Phosphatase and kinase null mutant screening; format: cell-based, Aspergillus fumigatus; also: key: +: sensitivity similar to wild-type; −: more sensitive than the wild-type
# Protocol: Phosphatase and kinase null mutant screening: An A. fumigatus phosphatase deletion library encompassing 25 null mutants for phosphatase catalytic subunits (Winkelströter et al., G3 (Bethesda), 2015, 5, 1525-39) was screened for sensitivity to the combination of CAS+BRI. […] In each well a total of 200 μL of liquid MM plus conidia from the different mutants (1×10^4 conidia/mL) was incubated in the presence of BRI (20 μM).
# [3] = test system: A. fumigatus clinical isolates; test: Growth inhibition of clinical isolates by CAS, VOR, BRI and combinations
# [4] = test system: A. fumigatus cell membrane potential; test: Membrane potential determination, DiBAC4(3); format: cell-based, Aspergillus fumigatus; details: CAS 0.125 μg/ml, 30 minutes
# Protocol: Membrane potential determination: […] Biotechnol., 2021, 14, 262-276) with modifications. […] After, the germlings were washed with sterile PBS (140 mM NaCl, 2 mM KCl, 10 mM NaHPO4, 1.8 mM KH2PO4, pH 7.4). The fluorescence was analyzed with excitation wavelength of 450-490 nm, and emission wavelength of 525-550 nm on the Observer Z1 fluorescence microscope (Carl Zeiss) using the 100× with Differential interference contrast (DIC) images. Fluorescent images were captured with an AxioCam camera (Carl Zeiss, Inc.) and processed using the Axio Vision software (version 4.8).
# C. albicans = test: MIC for yeasts, CLSI M27-A3; format: cell-based, Candida albicans
# CrzA:GFP = CrzA:GFP translocation to the nucleus; details: CAS 0.07 μg/ml, 30 minutes
# Protocol: Conidia were germinated in YG medium and grown for 13 hours and then exposed or not to BRI, CAS, and BRI+CAS for 30 minutes.
# C. auris = test: MIC for yeasts, CLSI M27-A3; format: cell-based, Candida auris
# C. neoformans [5] = test: MIC for yeasts, CLSI M27-A3; format: cell-based, Cryptococcus neoformans; details: Cryptococcus neoformans H99; read-out: MIC CAS
# A. fumigatus = test: Fungal burden, chemotherapeutic murine model of IPA; format: in vivo, BALB/c mice; details: CAS 1 mg/kg, 3 days post-infection, vs non-treated mice
# Protocol: Fungal burden: Inbred female mice (BALB/c strain; body weight, 20-22 g) were housed in vented cages containing five animals. Mice were immunosuppressed with cyclophosphamide (150 mg per kg of body weight), which was administered intraperitoneally on days −4, −1 and 2 prior to and post infection (infection day is “day 0”). Hydrocortisonacetate (200 mg/kg body weight) was injected subcutaneously on day −3. Mice (5 mice per group) were anesthetized by halothane inhalation and infected by intranasal instillation of 20 μL of 1.0×10^6 conidia of A. fumigatus Δku80 pyrG^+ (wild-type) (the viability of the administered inoculum was determined by incubating a serial dilution of the conidia on MM medium, at 37° C.). As a negative control, a group of 5 mice received PBS only. […]
# DNA quantity and quality were assessed using a NanoDrop 2000 spectrophotometer (Thermo Scientific). Quantitative real-time PCRs were performed using 400 ng of total DNA from each sample, and primers to amplify the 18S rRNA region of A. fumigatus and an intronic region of mouse GAPDH (glyceraldehyde-3-phosphate dehydrogenase). Six-point standard curves were calculated using serial dilutions of gDNA from A. fumigatus strain and the uninfected mouse lung. Fungal and mouse DNA quantities were obtained from the threshold cycle (Ct) values from an appropriate standard curve.
# chitin synthase genes = test: Chitin synthase mRNA accumulation (RT-qPCR); details: wild-type strain, 1 hour exposure; not in the mutant strains
# Protocol: RNA-sequencing. cDNA synthesis and RTqPCR: All experiments were carried out in biological triplicates and conidia (10^7) were inoculated in liquid MM and A. fumigatus strains were grown for 16 hours at 37 ° C. and treated or not with different concentrations of BRI, CAS, or BRI+CAS for 1 hour. For total RNA isolation, mycelia were ground in liquid nitrogen and total RNA was extracted using TRIzol (Invitrogen), treated with RQ1 RNase-free DNase I (Promega), and purified using the RNAeasy kit (Qiagen) according to the manufacturer's instructions. RNA was quantified using a NanoDrop and Qubit fluorometer, and analyzed using an Agilent 2100 Bioanalyzer system to assess the integrity of the RNA.
# For RT-qPCR, the RNA was reverse transcribed to cDNA using the ImProm-II reverse transcription system (Promega) according to manufacturer's instructions, and the synthesized cDNA was used for real-time analysis using the SYBR green PCR master mix kit (Applied Biosystems) in the ABI 7500 Fast real-time PCR system (Applied Biosystems, Foster City, CA, USA).
smiles,measurement,setting,value
"CC[C@H](C)C[C@H](C)CCCCCCCCC(=O)N[C@H]1C[C@@H](O)[C@@H](NCCN)NC(=O)[C@@H]2[C@@H](O)CCN2C(=O)[C@H]([C@H](O)CCN)NC(=O)[C@H]([C@H](O)[C@@H](O)c2ccc(O)cc2)NC(=O)[C@@H]2C[C@@H](O)CN2C(=O)[C@H]([C@@H](C)O)NC1=O [CAS, caspofungin]",decrease of survival (CFUs),C. neoformans [1],about 50%
same,inhibition at 0.25 µg/mL,A. fumigatus biofilms,~10%
same,inhibition at 2 µg/mL,A. fumigatus biofilms,~10%
same,"sensitivity, CAS (0.25 μg/mL)",[2]; Afs35 (wild-type; A1159),+
same,"sensitivity, CAS (0.25 μg/mL)",[2]; CEA17 (wild-type; A1160),+
same,"sensitivity, CAS (0.25 μg/mL)",[2]; ΔcalA (Afu5g09360),+
same,"sensitivity, CAS (0.25 μg/mL)",[2]; ΔcdcA (Afu3g12250),+
same,"sensitivity, CAS (0.25 μg/mL)",[2]; ΔdspA (Afu1g13040),+
same,"sensitivity, CAS (0.25 μg/mL)",[2]; ΔdspB (Afu1g03540),+
same,"sensitivity, CAS (0.25 μg/mL)",[2]; ΔdspD (Afu2g02760),+
same,"sensitivity, CAS (0.25 μg/mL)",[2]; ΔltpA (Afu2g01880),+
same,"sensitivity, CAS (0.25 μg/mL)",[2]; ΔmpkA,−
same,"sensitivity, CAS (0.25 μg/mL)",[2]; ΔmpkB,+
same,"sensitivity, CAS (0.25 μg/mL)",[2]; ΔmpkC,+
same,"sensitivity, CAS (0.25 μg/mL)",[2]; ΔnemA (Afu1g09460),+
same,"sensitivity, CAS (0.25 μg/mL)",[2]; ΔpphA (Afu5g12010),+
same,"sensitivity, CAS (0.25 μg/mL)",[2]; ΔppmA (Afu8g04580),+
same,"sensitivity, CAS (0.25 μg/mL)",[2]; ΔppsA (Afu5g11690),+
same,"sensitivity, CAS (0.25 μg/mL)",[2]; ΔpptA (Afu5g06700),+
same,"sensitivity, CAS (0.25 μg/mL)",[2]; ΔppzA (Afu2g03950),+
same,"sensitivity, CAS (0.25 μg/mL)",[2]; ΔpsrA (Afu1g04790),+
same,"sensitivity, CAS (0.25 μg/mL)",[2]; ΔptcA (Afu1g15800),+
same,"sensitivity, CAS (0.25 μg/mL)",[2]; ΔptcB (Afu1g09280),+
same,"sensitivity, CAS (0.25 μg/mL)",[2]; ΔptcD (Afu5g13740),+
same,"sensitivity, CAS (0.25 μg/mL)",[2]; ΔptcE (Afu2g03890),+
same,"sensitivity, CAS (0.25 μg/mL)",[2]; ΔptcF (Afu1g06860),+
same,"sensitivity, CAS (0.25 μg/mL)",[2]; ΔptcG (Afu5g13340),+
same,"sensitivity, CAS (0.25 μg/mL)",[2]; ΔptcH (Afu4g00720),+
same,"sensitivity, CAS (0.25 μg/mL)",[2]; ΔptpB (Afu3g10970),+
same,"sensitivity, CAS (0.25 μg/mL)",[2]; ΔptyA (Afu6g06650),+
same,"sensitivity, CAS (0.25 μg/mL)",[2]; ΔpypA (Afu4g04710),+
same,"sensitivity, CAS (0.25 μg/mL)",[2]; ΔsakA,+
same,"sensitivity, CAS (0.25 μg/mL)","[2]; ΔsakA, ΔmpkC",+
same,"sensitivity, CAS (0.25 μg/mL)",[2]; ΔsitA (Afu6g11470),+
same,"sensitivity, CAS (0.25 μg/mL)",[2]; ΔyphA (Afu4g07000),+
same,"growth, CAS alone","[3]; CM7555 CAS^R, CAS 0.25 μg/mL",+
same,"growth, CAS alone","[3]; CM7555 CAS^R, CAS 2 μg/mL",+
same,"growth, CAS alone","[3]; CM7555 CAS^R, CAS 4 μg/mL",+
same,"growth, CAS alone","[3]; DPL1033 CAS^R, CAS 0.25 μg/mL",+
same,"growth, CAS alone","[3]; DPL1033 CAS^R, CAS 2 μg/mL",+
same,"growth, CAS alone","[3]; DPL1033 CAS^R, CAS 4 μg/mL",+
same,"growth, CAS alone","[3]; MD24053 CAS^R, CAS 0.25 μg/mL",+
same,"growth, CAS alone","[3]; MD24053 CAS^R, CAS 2 μg/mL",+
same,"growth, CAS alone","[3]; MD24053 CAS^R, CAS 4 μg/mL",+
same,"growth, CAS alone","[3]; WT, CAS 0.25 μg/mL",+
same,"growth, CAS alone","[3]; WT, CAS 2 μg/mL",+
same,"growth, CAS alone","[3]; WT, CAS 4 μg/mL",+
same,fluorescent germlings (membrane depolarization),[4],~25%
same,MIC,"C. albicans; Candida albicans SC5314, read-out: MIC CAS",0.25 µg/mL
same,MIC,"C. albicans; Candida albicans, read-out: MIC CAS, Candida albicans DPL1006 CAS^R (FKS1 F641L)",2 µg/mL
same,MIC,"C. albicans; Candida albicans, read-out: MIC CAS, Candida albicans DPL1007 CAS^R (FKS1 F641S)",4 µg/mL
same,MIC,"C. albicans; Candida albicans, read-out: MIC CAS, Candida albicans DPL1009 CAS^R (FKS1 S645Y)",4 µg/mL
same,MIC,"C. albicans; Candida albicans, read-out: MIC CAS, Candida albicans DPL1010 CAS^R (FKS1 S645F)",2 µg/mL
same,MIC,"C. albicans; Candida albicans, read-out: MIC CAS, Candida albicans DPL1011 CAS^R (FKS1 S645F + R1361R/H)",4 µg/mL
same,germlings with CrzA:GFP in the nuclei,CrzA:GFP,28.3%
same,MIC CAS,C. auris; Candida auris 468/2015,1.0 µg/mL
same,MIC CAS,C. auris; Candida auris 469/2015,1.0 µg/mL
same,MIC CAS,C. auris; Candida auris 470/2015,1.0 µg/mL
same,MIC CAS,C. auris; Candida auris 471/2015,1.0 µg/mL
same,MIC,"C. auris; Candidozyma auris, Candida auris 467/2015, read-out: MIC CAS",1 µg/mL
same,MIC,C. neoformans [5],32 µg/mL
same,reduction of fungal burden in the lungs,A. fumigatus,approximately 50%
same,chitin synthase gene expression,chitin synthase genes,induce some of these genes
